How the values were obtained:
human EAAT3 = target: T1, human EAAT3 (Homo sapiens, UniProt P43005); experiment: FLIPR Membrane Potential (FMP) assay, antagonist potency at human EAAT3; type: cell-based; details: HEK-293 cells stably expressing human EAAT3; L-glutamate as agonist at EC80; antagonist applied 15 min before agonist; Kb by Cheng-Prusoff from IC50
T1 construct: expressed in transfected cells
T1 sequence (P43005 1-524): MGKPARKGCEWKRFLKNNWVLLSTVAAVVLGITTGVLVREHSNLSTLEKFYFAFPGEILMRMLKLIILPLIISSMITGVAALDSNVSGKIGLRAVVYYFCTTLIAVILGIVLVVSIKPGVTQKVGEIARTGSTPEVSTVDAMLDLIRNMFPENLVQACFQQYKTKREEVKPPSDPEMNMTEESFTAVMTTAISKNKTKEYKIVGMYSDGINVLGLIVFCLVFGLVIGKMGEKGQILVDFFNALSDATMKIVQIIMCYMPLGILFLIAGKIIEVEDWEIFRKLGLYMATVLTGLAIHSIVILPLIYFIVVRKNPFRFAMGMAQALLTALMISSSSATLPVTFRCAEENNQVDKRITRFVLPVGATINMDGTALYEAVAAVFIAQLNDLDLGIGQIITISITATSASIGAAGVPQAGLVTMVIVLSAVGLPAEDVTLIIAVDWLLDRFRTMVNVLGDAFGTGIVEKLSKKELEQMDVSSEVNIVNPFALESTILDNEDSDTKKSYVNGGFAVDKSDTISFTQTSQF
Experimental: The FLIPR Membrane Potential (FMP) Assay
HEK-293 cells stably expressing human EAAT3 were seeded at 55 000 cells/well in growth medium (DMEM glutamate free (Invitrogen 11960-044), 1% Pen Strep (10 ml/1 GIBCO BRL N°15140-023), 10% FCS non dialysed heat inactivated, 5 mg/l puromycin) in poly-D-lysine treated 96-well black microtiter plates with clear-bottom. After 24 h, the growth medium was removed and 100 μl/well of Krebs buffer (140 mM NaCl, 4.7 mM KCl, 2.5 mM CaCl2, 1.2 mM MgCl2, 11 mM HEPES, 10 mM D-glucose, pH=7.4) added. The cells were then loaded by adding 100 μl/well FMP assay dye (FLIPR Membrane Potential assay reagent, Molecular Devices). The 96-well plates were then incubated at 37° C. for 1 h. The depolarization of the cells will cause more dye to enter in the cells, where it will bind to intracellular proteins and lipids and cause an increase in the fluorescence signal. Antagonist potency at human EAAT3 was determined by using L-glutamate as agonist at a concentration which gives 80% of the maximum response. The antagonists were applied 15 min before the application of the agonist L-glutamate. The assays were performed at room temperature and measurements done by using a Fluorometric Imaging Plate Reader (FLIPR, Molecular Devices) and filter #2. Responses were measured as peak increase in fluorescence minus basal (i.e. fluorescence without addition of L-glutamate). Kb was determined using the Cheng-Prusoff equation Kb=IC50/[1+(A/EC50)], where IC50 is the concentration of the antagonist producing 50% inhibition, A is the concentration of the agonist against which the IC50 is being determined (at EC80) and EC50 is the concentration of the agonist producing 50% […].

Kb (human EAAT3) [nM] | melting point [°C] | Structure (SMILES)
180 | – | CCc1nccn1-c1cc(C(=O)NC(C)(C)C)cc(-c2ccc(Cl)cc2)c1 [Example 4, N-tert-Butyl-3-(4-chlorophenyl)-5-(2-ethylimidazol-1-yl)-benzamide]
220 | 183 | CCc1nccn1-c1cc(C(=O)NC(C)(C)C2CC2)cc(-c2ccc(Cl)cc2)c1 [Example 9, 3-(4-Chlorophenyl)-N-(2-cyclopropylpropan-2-yl)-5-(2-ethylimidazol-1-yl)-benzamide]
220 | 112 | CC(C)c1nccn1-c1cc(C(=O)NC2(C)CCS(=O)(=O)C2)cc(-c2ccc(Cl)cc2)c1 (racemic) [Example 38, (RS)-3-(4-Chlorophenyl)-N-(3-methyl-1,1-dioxothiolan-3-yl)-5-(2-propan-2-ylimidazol-1-yl)-benzamide]
280 | 98.5 | Cc1cc(-c2cc(C(=O)NC(C)(C)C)cc(-n3ccnc3C(C)C)c2)ccc1F [Example 27, N-tert-Butyl-3-(4-fluoro-3-methylphenyl)-5-(2-propan-2-ylimidazol-1-yl)-benzamide]
330 | 87 | CCC(C)(C)NC(=O)c1cc(-c2ccc(Cl)cc2)cc(-n2ccnc2C(C)C)c1 [Example 36, 3-(4-Chlorophenyl)-N-(2-methylbutan-2-yl)-5-(2-propan-2-ylimidazol-1-yl)-benzamide]
170 | 99 | CC(C)(CO)NC(=O)c1cc(-c2ccc(Cl)cc2)cc(-n2ccnc2C2CC2)c1 [Example 42, 3-(4-Chlorophenyl)-5-(2-cyclopropylimidazol-1-yl)-N-(1-hydroxy-2-methylpropan-2-yl)-benzamide]
120 | 80 | CC(C)c1nccn1-c1cc(C(=O)NC(C)(C)C2CC2)cc(-c2ccc(F)cc2)c1 [Example 17, N-(2-Cyclopropylpropan-2-yl)-3-(4-fluorophenyl)-5-(2-propan-2-ylimidazol-1-yl)-benzamide]
230 | 189 | CC(C)c1nccn1-c1cc(C(=O)NC(C)(C)C2CC2)cc(-c2ccc(Cl)cc2)c1 [Example 8, 3-(4-Chlorophenyl)-N-(2-cyclopropylpropan-2-yl)-5-(2-propan-2-ylimidazol-1-yl)-benzamide]
130 | 250.5 | CC(C)(C)NC(=O)c1cc(-c2ccc(F)cc2)cc(-n2ccnc2C2CC2)c1 [Example 16, N-tert-Butyl-3-(2-cyclopropylimidazol-1-yl)-5-(4-fluorophenyl)-benzamide]
80 | 234 | CC(C)(CO)NC(=O)c1cc(-c2ccc(Cl)cc2)cc(-n2ccnc2C(C)(C)C)c1 [Example 43, 3-(2-tert-Butylimidazol-1-yl)-5-(4-chlorophenyl)-N-(1-hydroxy-2-methylpropan-2-yl)-benzamide]
120 | – | CC(C)(C)NC(=O)c1cc(-c2ccc(Cl)cc2)cc(-n2ccnc2C2CC2)c1 [Example 5, N-tert-Butyl-3-(4-chlorophenyl)-5-(2-cyclopropylimidazol-1-yl)-benzamide]
210 | 95 | CC(C)c1nccn1-c1cc(C(=O)NC(C)(C)C)cc(-c2ccc(C3CC3)cc2)c1 [Example 25, N-tert-Butyl-3-(4-cyclopropylphenyl)-5-(2-propan-2-ylimidazol-1-yl)-benzamide]
33 | 83 | CC(C)(NC(=O)c1cc(-c2ccc(F)cc2)cc(-n2ccnc2C2CC2)c1)C1CC1 [Example 20, 3-(2-Cyclopropylimidazol-1-yl)-N-(2-cyclopropylpropan-2-yl)-5-(4-fluorophenyl)-benzamide]
170 | 180 | Cc1nccn1-c1cc(C(=O)NC(C)(C)C2CC2)cc(-c2ccc(Cl)cc2)c1 [Example 11, 3-(4-Chlorophenyl)-N-(2-cyclopropylpropan-2-yl)-5-(2-methylimidazol-1-yl)-benzamide]
130 | 199.5 | Cc1nccn1-c1cc(C(=O)NC(C)(C)C(F)(F)F)cc(-c2ccc(Cl)cc2)c1 [Example 14, 3-(4-Chlorophenyl)-5-(2-methylimidazol-1-yl)-N-(1,1,1-trifluoro-2-methylpropan-2-yl)-benzamide]
120 | 98 | Cc1ccc(-c2cc(C(=O)NC(C)(C)C)cc(-n3ccnc3C(C)C)c2)cc1F [Example 22, N-tert-Butyl-3-(3-fluoro-4-methylphenyl)-5-(2-propan-2-ylimidazol-1-yl)-benzamide]
290 | 184 | Cc1nccn1-c1cc(C(=O)NC(C)(C)C2CC2)cc(-c2ccc(F)cc2)c1 [Example 19, N-(2-Cyclopropylpropan-2-yl)-3-(4-fluorophenyl)-5-(2-methylimidazol-1-yl)-benzamide]
150 | 91.5 | CC(C)c1nccn1-c1cc(C(=O)NC(C)(C)C)cc(-c2ccc(F)c(F)c2)c1 [Example 23, N-tert-Butyl-3-(3,4-difluorophenyl)-5-(2-propan-2-ylimidazol-1-yl)-benzamide]
540 | 97 | CC(C)c1nccn1-c1cc(C(=O)NC(C)(C)CO)cc(-c2ccc(Cl)cc2)c1 [Example 41, 3-(4-Chlorophenyl)-N-(1-hydroxy-2-methylpropan-2-yl)-5-(2-propan-2-yl-imidazol-1-yl)-benzamide]
180 | – | CC(C)c1nccn1-c1cc(C(=O)NC(C)(C)C)cc(-c2ccc(Cl)cc2)c1 [Example 1, N-tert-Butyl-3-(4-chlorophenyl)-5-(2-propan-2-ylimidazol-1-yl)-benzamide]
230 | – | CC(C)(C)NC(=O)c1cc(-c2ccc(Cl)cc2)cc(-n2ccnc2)c1 [Example 2, N-tert-Butyl-3-(4-chlorophenyl)-5-imidazol-1-ylbenzamide]
200 | 115.5 | CC(C)c1nccn1-c1cc(C(=O)NC(C)(C)C(F)(F)F)cc(-c2ccc(Cl)cc2)c1 [Example 7, 3-(4-Chlorophenyl)-5-(2-propan-2-ylimidazol-1-yl)-N-(1,1,1-trifluoro-2-methylpropan-2-yl)-benzamide]
180 | 96.5 | CC(C)c1nccn1-c1cc(C(=O)NC(C)(C)C)cc(-c2ccc(C(F)(F)F)cc2)c1 [Example 21, N-tert-Butyl-3-(2-propan-2-ylimidazol-1-yl)-5-[4-(trifluoromethyl)-phenyl]-benzamide]
410 | 189.5 | CCC(C)(C)NC(=O)c1cc(-c2ccc(Cl)cc2)cc(-n2ccnc2C(C)(C)C)c1 [Example 31, 3-(2-tert-Butylimidazol-1-yl)-5-(4-chlorophenyl)-N-(2-methylbutan-2-yl)-benzamide]
180 | 218 | CC(C)(C)NC(=O)c1cc(-c2ccc(F)cc2)cc(-n2ccnc2C(C)(C)C)c1 [Example 32, N-tert-Butyl-3-(2-tert-butylimidazol-1-yl)-5-(4-fluorophenyl)-benzamide]
160 | 101 | CC(C)(C)NC(=O)c1cc(-c2ccc(Cl)cc2)cc(-n2ccnc2C(C)(C)C)c1 [Example 28, N-tert-Butyl-3-(2-tert-butylimidazol-1-yl)-5-(4-chlorophenyl)-benzamide]
130 | 104 | Cc1ccc(-c2cc(C(=O)NC(C)(C)C)cc(-n3ccnc3C(C)C)c2)cc1 [Example 26, N-tert-Butyl-3-(4-methylphenyl)-5-(2-propan-2-ylimidazol-1-yl)-benzamide]
290 | 225 | CC(C)(C)NC(=O)c1cc(-c2ccc(C(F)(F)F)cc2)cc(-n2ccnc2C(C)(C)C)c1 [Example 33, N-tert-Butyl-3-(2-tert-butylimidazol-1-yl)-5-[4-(trifluoromethyl)-phenyl]-benzamide]
190 | 98 | CC(C)c1nccn1-c1cc(C(=O)NC(C)(C)C)cc(-c2ccc(Cl)c(F)c2)c1 [Example 24, N-tert-Butyl-3-(4-chloro-3-fluorophenyl)-5-(2-propan-2-ylimidazol-1-yl)-benzamide]

Source: patent US10029989B2, “Imidazole derivatives” (Hoffmann-La Roche Inc., priority 2015, dated 2018)
